Laboratory results from PubChem BioAssay AID2060626 (Molecular Pharmacology Branch, DTP, NCI, 2025).
Where “and” joins values, the source holds several entries; their conditions need not be identical. Equal values may be shown once.

System: 168753-222-R-J1-PDC complex spheroid viability
Test: Anticancer human tumor 168753-222-R-J1-PDC patient-derived bladder carcinoma cell line growth inhibition [CLK]
Settings: for viability, T/C: stronger effect = lower value
Summary of the method: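 Patient-derived tumor cells grown as complex spheroids with HUVEC endothelial cells and mesenchymal stem cells, treated with drug combinations. Concentrations descend in half-log steps from near clinical Cmax, or from 10 microM if Cmax unknown.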

[1] = curve of first compound, second compound 0.0316 µM
[2] = curve of first compound, second compound 0.1 µM
[3] = curve of first compound, second compound 0.316 µM
[4] = curve of first compound, second compound 1 µM
[5] = curve of first compound, second compound 3.16 µM
[6] = curve of first compound, second compound 10 µM
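Also: viability measured after seven days of drug exposure.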
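For viability, T/C in this document: luminescence signal used as surrogate for viable cell amount; 100% = DMSO vehicle control wells.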

## COc1c(OCCCN2CCOCC2)ccc2c3n(c(=NC(=O)c4cnc(N)nc4)nc12)CCN3 + CN1CCN(c2cc(C(=O)Nc3cc4cc(-c5cnn(C)c5)ccc4cn3)ccn2)CC1
[1]
  IC50: < 3.16 nM
[2]
  IC50: < 3.16 nM
[3]
  IC50: < 3.16 nM
[4]
  IC50: < 3.16 nM
[5]
  IC50: < 3.16 nM
[6]
  IC50: < 3.16 nM
Second compound 0.0316 µM, first compound 0.00316 µM
  viability, T/C: 49%
Second compound 0.0316 µM, first compound 0.01 µM
  viability, T/C: 28.7%
Second compound 0.0316 µM, first compound 0.0316 µM
  viability, T/C: 11.2%
Second compound 0.0316 µM, first compound 0.1 µM
  viability, T/C: 7.62%
Second compound 0.0316 µM, first compound 0.316 µM
  viability, T/C: 4.48%
Second compound 0.0316 µM, first compound 1 µM
  viability, T/C: 3.95%
Second compound 0.1 µM, first compound 0.00316 µM
  viability, T/C: 31.4%
Second compound 0.1 µM, first compound 0.01 µM
  viability, T/C: 21.4%
Second compound 0.1 µM, first compound 0.0316 µM
  viability, T/C: 7.93%
Second compound 0.1 µM, first compound 0.1 µM
  viability, T/C: 4.89%
Second compound 0.1 µM, first compound 0.316 µM
  viability, T/C: 1.94%
Second compound 0.1 µM, first compound 1 µM
  viability, T/C: 0.48%
Second compound 0.316 µM, first compound 0.00316 µM
  viability, T/C: 13.2%
Second compound 0.316 µM, first compound 0.01 µM
  viability, T/C: 10.1%
Second compound 0.316 µM, first compound 0.0316 µM
  viability, T/C: 2.34%
Second compound 0.316 µM, first compound 0.1 µM
  viability, T/C: 0.36%
Second compound 0.316 µM, first compound 0.316 µM
  viability, T/C: 0.18%
Second compound 0.316 µM, first compound 1 µM
  viability, T/C: 1.84%
Second compound 1 µM, first compound 0.00316 µM
  viability, T/C: 0.61%
Second compound 1 µM, first compound 0.01 µM
  viability, T/C: 0.25%
Second compound 1 µM, first compound 0.0316 µM
  viability, T/C: 0.08%
Second compound 1 µM, first compound 0.1 µM
  viability, T/C: 0.05%
Second compound 1 µM, first compound 0.316 µM
  viability, T/C: 0.06%
Second compound 1 µM, first compound 1 µM
  viability, T/C: 0.09%
Second compound 3.16 µM, first compound 0.00316 µM
  viability, T/C: 1.35%
Second compound 3.16 µM, first compound 0.01 µM
  viability, T/C: 0.2%
Second compound 3.16 µM, first compound 0.0316 µM
  viability, T/C: 0.08%
Second compound 3.16 µM, first compound 0.1 µM
  viability, T/C: 0.05%
Second compound 3.16 µM, first compound 0.316 µM
  viability, T/C: 0.09%
Second compound 3.16 µM, first compound 1 µM
  viability, T/C: 0.12%
Second compound 10 µM, first compound 0.00316 µM
  viability, T/C: 0.06%
Second compound 10 µM, first compound 0.01 µM
  viability, T/C: 0.11%
Second compound 10 µM, first compound 0.0316 µM
  viability, T/C: 0.17%
Second compound 10 µM, first compound 0.1 µM
  viability, T/C: 0.73%
Second compound 10 µM, first compound 0.316 µM
  viability, T/C: 0.21%
Second compound 10 µM, first compound 1 µM
  viability, T/C: 0.22%

## C=CC(=O)N1CCN(c2nc(=O)n(-c3c(C)ccnc3C(C)C)c3nc(-c4c(O)cccc4F)c(F)cc23)C(C)C1 (stereo not drawn)
Compound 0.0316 µM
  viability, T/C: 91% and 86.6%
Compound 0.1 µM
  viability, T/C: 111% and 92.8%
Compound 0.316 µM
  viability, T/C: 101% and 92.3%
Compound 1 µM
  viability, T/C: 110% and 103%
Compound 3.16 µM
  viability, T/C: 106% and 121%
Compound 10 µM
  viability, T/C: 103% and 74.9%
Curve of compound
  IC50: > 10000 nM

## NC(=O)C(=Cn1cnc(-c2cc(C(F)(F)F)cc(C(F)(F)F)c2)n1)c1cncnc1 + CNC(=O)c1ccc(Nc2nc(OC3CCCC3)c3c(-c4ccc5nc(C)oc5c4)c[nH]c3n2)c(OC)c1
[1]
  IC50: > 3000 nM
[2]
  IC50: 829 nM
[3]
  IC50: 142 nM
[4]
  IC50: 10.6 nM
[5]
  IC50: < 9.49 nM
[6]
  IC50: < 9.49 nM
Second compound 0.0316 µM, first compound 0.00949 µM
  viability, T/C: 103%
Second compound 0.0316 µM, first compound 0.03 µM
  viability, T/C: 105%
Second compound 0.0316 µM, first compound 0.0949 µM
  viability, T/C: 69%
Second compound 0.0316 µM, first compound 0.3 µM
  viability, T/C: 83%
Second compound 0.0316 µM, first compound 0.949 µM
  viability, T/C: 72.6%
Second compound 0.0316 µM, first compound 3 µM
  viability, T/C: 48.9%
Second compound 0.1 µM, first compound 0.00949 µM
  viability, T/C: 105%
Second compound 0.1 µM, first compound 0.03 µM
  viability, T/C: 121%
Second compound 0.1 µM, first compound 0.0949 µM
  viability, T/C: 89.9%
Second compound 0.1 µM, first compound 0.3 µM
  viability, T/C: 59.7%
Second compound 0.1 µM, first compound 0.949 µM
  viability, T/C: 58.3%
Second compound 0.1 µM, first compound 3 µM
  viability, T/C: 21.5%
Second compound 0.316 µM, first compound 0.00949 µM
  viability, T/C: 72.7%
Second compound 0.316 µM, first compound 0.03 µM
  viability, T/C: 73.5%
Second compound 0.316 µM, first compound 0.0949 µM
  viability, T/C: 61.8%
Second compound 0.316 µM, first compound 0.3 µM
  viability, T/C: 28%
Second compound 0.316 µM, first compound 0.949 µM
  viability, T/C: 23.1%
Second compound 0.316 µM, first compound 3 µM
  viability, T/C: 21.4%
Second compound 1 µM, first compound 0.00949 µM
  viability, T/C: 51.8%
Second compound 1 µM, first compound 0.03 µM
  viability, T/C: 33.7%
Second compound 1 µM, first compound 0.0949 µM
  viability, T/C: 14.7%
Second compound 1 µM, first compound 0.3 µM
  viability, T/C: 9.95%
Second compound 1 µM, first compound 0.949 µM
  viability, T/C: 2.29%
Second compound 1 µM, first compound 3 µM
  viability, T/C: 11.6%
Second compound 3.16 µM, first compound 0.00949 µM
  viability, T/C: 23.3%
Second compound 3.16 µM, first compound 0.03 µM
  viability, T/C: 14.8%
Second compound 3.16 µM, first compound 0.0949 µM
  viability, T/C: 11.7%
Second compound 3.16 µM, first compound 0.3 µM
  viability, T/C: 1.87%
Second compound 3.16 µM, first compound 0.949 µM
  viability, T/C: 1.14%
Second compound 3.16 µM, first compound 3 µM
  viability, T/C: 3.62%
Second compound 10 µM, first compound 0.00949 µM
  viability, T/C: 15.3%
Second compound 10 µM, first compound 0.03 µM
  viability, T/C: 13.7%
Second compound 10 µM, first compound 0.0949 µM
  viability, T/C: 8.71%
Second compound 10 µM, first compound 0.3 µM
  viability, T/C: 1.11%
Second compound 10 µM, first compound 0.949 µM
  viability, T/C: 2.71%
Second compound 10 µM, first compound 3 µM
  viability, T/C: 1.28%

## COc1ccc([C@@H](O)c2cc(-c3ncnc4cc(N5CCOCC5)ccc34)c(F)cc2Cl)nn1
Compound 0.0316 µM
  viability, T/C: 90% and 106%
Compound 0.1 µM
  viability, T/C: 95.4% and 97.4%
Compound 0.316 µM
  viability, T/C: 40.8% and 95.7%
Compound 1 µM
  viability, T/C: 26.3% and 80.3%
Compound 3.16 µM
  viability, T/C: 13.1% and 37.1%
Compound 10 µM
  viability, T/C: 7.58% and 16.6%
Curve of compound
  IC50: 258 nM and 2250 nM
